In patent publication US20220402935A1, “HETEROCYCLIC COMPOUND” (FIMECS, INC., priority 2019, published 2022):
Where a name gives a salt, the structure may show the parent alone.

Molecular target: T1, IRAK-M (Homo sapiens, UniProt Q9Y616)
T1 sequence (Q9Y616 1-596): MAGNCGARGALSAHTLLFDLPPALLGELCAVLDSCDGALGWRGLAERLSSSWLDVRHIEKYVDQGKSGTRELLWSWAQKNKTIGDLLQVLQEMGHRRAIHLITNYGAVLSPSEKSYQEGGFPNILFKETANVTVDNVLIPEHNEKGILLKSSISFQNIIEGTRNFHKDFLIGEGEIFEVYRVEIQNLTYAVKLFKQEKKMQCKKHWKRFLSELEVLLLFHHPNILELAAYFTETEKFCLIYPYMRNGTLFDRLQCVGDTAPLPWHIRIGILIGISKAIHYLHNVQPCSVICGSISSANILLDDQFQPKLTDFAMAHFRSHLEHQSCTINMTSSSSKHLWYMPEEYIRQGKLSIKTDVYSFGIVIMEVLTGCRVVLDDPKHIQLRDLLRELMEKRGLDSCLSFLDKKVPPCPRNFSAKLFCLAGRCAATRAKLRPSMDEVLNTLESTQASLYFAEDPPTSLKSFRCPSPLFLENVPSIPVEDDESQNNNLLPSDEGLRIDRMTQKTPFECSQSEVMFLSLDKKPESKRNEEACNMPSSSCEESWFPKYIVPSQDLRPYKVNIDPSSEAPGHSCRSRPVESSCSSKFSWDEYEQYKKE
Assay: IRAK-M binding inhibitory activity (KINOMEscan active site-dependent competitive assay)
Design: purchased Eurofins Discover X
Conditions: for remaining binding at 1 µM: concentration of the test compound 1 μM, first symbol of cell, read-out: IRAK-M binding inhibition activity % Ctrl; for IC50: second symbol of cell, read-out: IRAK-M binding inhibition IC50 value
Procedure: IRAK-M binding inhibitory activity was evaluated using active site-dependent competitive assay KINOMEscan® provided by Eurofins Discover X (Goldstein, D. M. et al. High-throughput kinase profiling as a platform for drug discovery. Nat. Rev. Drug Discovery. 7, 391-397 (2008)). IRAK-M binding inhibitory activity of the test compound was evaluated. […] The “% Ctrl” is calculated by the following formula.
(test compound signal−positive control compound signal)/(negative control compound signal−positive control compound signal)×100
Negative control compound=DMSO (100 Ctrl)
Positive control compound=control compound (0%×Ctrl)

| remaining binding at 1 µM [%] | IC50 [nM] | Structure (SMILES) |
| --- | --- | --- |
| 25 to 50 | – | COc1cc(Nc2ncnc3ccsc23)ccn1 [Ref. example 23, N-(2-methoxypyridin-4-yl)thieno[3,2-d]pyrimidin-4-amine] |
| ≥ 75 | – | Cc1nn(C)c(C)c1CN1CCC(Oc2ccnc3ccsc23)CC1 [Ref. example 75, 7-((1-((1,3,5-trimethyl-1H-pyrazol-4-yl)methyl)piperidin-4-yl)oxy)thieno[3,2-b]pyridine] |
| ≥ 75 | – | c1nc(Nc2ccc3[nH]cnc3c2)c2sccc2n1 [Ref. example 26, N-(1H-benzo[d]imidazol-5-yl)thieno[3,2-d]pyrimidin-4-amine] |
| 25 to 50 | – | C#CCN1CCC(Oc2ccnc3ccsc23)CC1 [Ref. example 67, 7-((1-(prop-2-yn-1-yl)piperidin-4-yl)oxy)thieno[3,2-b]pyridine] |
| < 25 | – | Cc1ccc(NS(=O)(=O)c2ccc(CNC(=O)COCCOc3cc(CN4CCC(Oc5ccnc6ccsc56)CC4)on3)cc2)c2[nH]cc(C#N)c12 [Example 70, N-(4-(N-(3-cyano-4-methyl-1H-indol-7-yl)sulfamoyl)benzyl)-2-(2-((5-((4-(thieno[3,2-b]pyridin-7-yloxy)piperidin-1-yl)methyl)isoxazol-3-yl)oxy)ethoxy)acetamide] |
| – | 100 to 300 | C=CCOc1cc(CN2CCC(Oc3ccnc4cc(C#N)sc34)CC2)on1 [Ref. example 86, 7-((1-((3-(allyloxy)isoxazol-5-yl)methyl)piperidin-4-yl)oxy)thieno[3,2-b]pyridine-2-carbonitrile] |
| 50 to 75 | – | FC(F)(F)c1cc(Nc2ncnc3ccsc23)ccn1 [Ref. example 22, N-(2-(trifluoromethyl)pyridin-4-yl)thieno[3,2-d]pyrimidin-4-amine] |
| 25 to 50 | – | COCCS(=O)(=O)N1CCC(Oc2ncnc3ccsc23)CC1 [Ref. example 40, 4-((1-((2-methoxyethyl)sulfonyl)piperidin-4-yl)oxy)thieno[3,2-d]pyrimidine] |
| 25 to 50 | – | COc1ccc(S(=O)(=O)N2CCC(Oc3ncnc4ccsc34)CC2)cc1 [Ref. example 51, 4-((1-((4-methoxyphenyl)sulfonyl)piperidin-4-yl)oxy)thieno[3,2-d]pyrimidine] |
| < 25 | – | c1cc(OC2CCN(Cc3cc(OC[C@@H]4CCCN4)no3)CC2)c2sccc2n1 [Ref. example 10, (S)-3-(Pyrrolidin-2-ylmethoxy)-5-((4-(thieno[3,2-b]pyridin-7-yloxy)piperidin-1-yl)methyl)isoxazole trihydrochloride] |
| – | 100 to 300 | C=CCOc1cc(CN2CCC(Oc3ncnc4ccsc34)CC2)on1 [Ref. example 70, 3-(allyloxy)-5-((4-(thieno[3,2-d]pyrimidin-4-yloxy)piperidin-1-yl)methyl)isoxazole] |
| – | 300 to 1000 | Cc1ncsc1-c1ccc(CNC(=O)[C@@H]2C[C@@H](O)CN2C(=O)[C@@H](NC(=O)COCCOCCOCCOc2cc(CN3CCC(Oc4ccnc5ccsc45)CC3)on2)C(C)(C)C)cc1 [Example 61, (2S,4R)-1-((S)-2-(tert-butyl)-4-oxo-14-((5-((4-(thieno[3,2-b]pyridin-7-yloxy)piperidin-1-yl)methyl)isoxazol-3-yl)oxy)-6,9,12-trioxa-3-azatetradecanoyl)-4-hydroxy-N-(4-(4-methylthiazol-5-yl)benzyl)pyrrolidine-2-carboxamide] |
| 25 to 50 | – | c1ccc(-c2cc3ncnc(Nc4ccccn4)c3s2)cc1 [Ref. example 15, 6-phenyl-N-(pyridin-2-yl)thieno[3,2-d]pyrimidin-4-amine] |
| 50 to 75 | – | CCOC(=O)CCS(=O)(=O)N1CCC(Oc2ncnc3ccsc23)CC1 [Ref. example 43, ethyl 3-((4-(thieno[3,2-d]pyrimidin-4-yloxy)piperidin-1-yl)sulfonyl)propanoate] |
| 25 to 50 | – | COc1cccc(S(=O)(=O)N2CCC(Oc3ncnc4ccsc34)CC2)c1 [Ref. example 54, 4-((1-((3-methoxyphenyl)sulfonyl)piperidin-4-yl)oxy)thieno[3,2-d]pyrimidine] |
| < 25 | – | O=S(=O)(c1cccc(Oc2ccccc2)c1)N1CCC(Oc2ncnc3ccsc23)CC1 [Ref. example 64, 4-((1-((3-phenoxyphenyl)sulfonyl)piperidin-4-yl)oxy)thieno[3,2-d]pyrimidine] |
| 25 to 50 | – | CC(C)CS(=O)(=O)N1CCC(Oc2ncnc3ccsc23)CC1 [Ref. example 62, 4-((1-(isobutylsulfonyl)piperidin-4-yl)oxy)thieno[3,2-d]pyrimidine] |
| ≥ 75 | – | Ic1cc2ncnc(OC3CCOCC3)c2s1 [Ref. example 34, 6-iodo-4-((tetrahydro-2H-pyran-4-yl)oxy)thieno[3,2-d]pyrimidine] |
| 25 to 50 | – | COc1ccc(S(=O)(=O)N2CCC(Oc3ncnc4ccsc34)CC2)cn1 [Ref. example 60, 4-((1-((6-methoxypyridin-3-yl)sulfonyl)piperidin-4-yl)oxy)thieno[3,2-d]pyrimidine] |
| 25 to 50 | – | O=S(=O)(C1CC1)N1CCC(Oc2ncnc3ccsc23)CC1 [Ref. example 44, 4-((1-(cyclopropylsulfonyl)piperidin-4-yl)oxy)thieno[3,2-d]pyrimidine] |
| < 25 | – | Cc1ncsc1-c1ccc(CNC(=O)[C@@H]2C[C@@H](O)CN2C(=O)[C@H](C(C)C)N2Cc3ccccc3C2=O)c(OCCOCCOc2cc(CN3CCC(Oc4ccnc5ccsc45)CC3)on2)c1 [Example 63, (2S,4R)-4-hydroxy-1-((S)-3-methyl-2-(1-oxoisoindolin-2-yl)butanoyl)-N-(4-(4-methylthiazol-5-yl)-2-(2-(2-((5-((4-(thieno[3,2-b]pyridin-7-yloxy)piperidin-1-yl)methyl)isoxazol-3-yl)oxy)ethoxy)ethoxy)benzyl)pyrrolidine-2-carboxamide] |
| 50 to 75 | – | c1ccc(OC2CCOC2)c(Nc2ncnc3ccsc23)c1 (stereo not drawn) [Ref. example 19, N-(2-((tetrahydrofuran-3-yl)oxy)phenyl)thieno[3,2-d]pyrimidin-4-amine] |
| 50 to 75 | – | NC(=O)c1ccc(Nc2ncnc3ccsc23)cc1 [Ref. example 18, 4-(thieno[3,2-d]pyrimidin-4-ylamino)benzamide] |
| 50 to 75 | – | CS(=O)(=O)N1CCC(Oc2ncnc3ccsc23)CC1 [Ref. example 39, 4-((1-(methylsulfonyl)piperidin-4-yl)oxy)thieno[3,2-d]pyrimidine] |
| 50 to 75 | – | CC(C)(C)OC(=O)N1CCC(CS(=O)(=O)N2CCC(Oc3ncnc4ccsc34)CC2)CC1 [Ref. example 42, tert-butyl 4-(((4-(thieno[3,2-d]pyrimidin-4-yloxy)piperidin-1-yl)sulfonyl)methyl)piperidine-1-carboxylate] |
| ≥ 75 | – | O=S1(=O)CCC(Oc2ncnc3cc(I)sc23)CC1 [Ref. example 37, 4-((6-iodothieno[3,2-d]pyrimidin-4-yl)oxy)tetrahydro-2H-thiopyran 1,1-dioxide] |
| 25 to 50 | – | O=S(=O)(c1cccnc1)N1CCC(Oc2ncnc3ccsc23)CC1 [Ref. example 58, 4-((1-(pyridin-3-ylsulfonyl)piperidin-4-yl)oxy)thieno[3,2-d]pyrimidine] |
| – | 300 to 1000 | O=C1CCC(N2C(=O)c3cccc(OCCOCCOCCOc4cc(CN5CCC(Oc6ccnc7ccsc67)CC5)on4)c3C2=O)C(=O)N1 (stereo not drawn) [Example 65, 2-(2,6-dioxopiperidin-3-yl)-4-(2-(2-(2-((5-((4-(thieno[3,2-b]pyridin-7-yloxy)piperidin-1-yl)methyl)isoxazol-3-yl)oxy)ethoxy)ethoxy)ethoxy)isoindoline-1,3-dione] |
| 25 to 50 | – | O=S(=O)(c1ccccc1F)N1CCC(Oc2ncnc3ccsc23)CC1 [Ref. example 49, 4-((1-((2-fluorophenyl)sulfonyl)piperidin-4-yl)oxy)thieno[3,2-d]pyrimidine] |
| 25 to 50 | – | O=S(=O)(Cc1ccccc1)N1CCC(Oc2ncnc3ccsc23)CC1 [Ref. example 41, 4-((1-(benzylsulfonyl)piperidin-4-yl)oxy)thieno[3,2-d]pyrimidine] |

| Structure (SMILES) | remaining binding at 1 µM [%] | IC50 [nM] |
| --- | --- | --- |
| Oc1cc(CN2CCC(Oc3ccnc4ccsc34)CC2)on1 [Ref. example 4, 5-((4-(thieno[3,2-b]pyridin-7-yloxy)piperidin-1-yl)methyl)isoxazol-3-ol] | 50 to 75 | – |
| Cc1cc2nccc(OC3CCN(C(C)c4cc(O)no4)CC3)c2s1 (stereo not drawn) [Ref. example 88, 5-(1-(4-((2-methylthieno[3,2-b]pyridin-7-yl)oxy)piperidin-1-yl)ethyl)isoxazol-3-ol] | 25 to 50 | – |
| Cc1cc2nccc(OC3CCN(Cc4cc(O)no4)CC3)c2s1 [Ref. example 87, 5-((4-((2-methylthieno[3,2-b]pyridin-7-yl)oxy)piperidin-1-yl)methyl)isoxazol-3-ol] | 25 to 50 | – |
